Test results as given in patent US9079880B2, “Rho kinase inhibitors” (Boehringer Ingelheim International GmbH, priority 2010, dated 2015).
pIC50: −log10 of the molar value.

Assays:
ROCKII (1-543) [1] = molecular target: T1, ROCKII (1-543) (Homo sapiens (Human), UniProt O75116); experiment: Luciferin-Luciferase Assay (PKLight ATP detection); type: biochemical; settings: 750 nM ATP, 500 nM peptide, 7.5 nM kinase
Experimental: 1. Luciferin-Luciferase Assay
The activity of ROCKII (1-543) kinase was measured utilizing Cambrex PKLight ATP Detection Reagent, a homogeneous assay technology using luciferin-luciferase to quantify residual ATP. The assay was performed in 384-well low-volume, white, non-binding surface microtiter plates (Corning). The assay buffer was 25 mM HEPES, pH 7.5, 10 mM MgCl2, 50 mM KCl, 0.2% BSA, 0.01% CHAPS, 100 μM Na3VO4 and 0.5 mM DTT. Test compounds, dissolved in neat DMSO at 500 μg/mL, were serially diluted for dose response for a final starting concentration of 3 μg/mL in 1% DMSO of assay buffer. ROCKII (1-543) (62,408Da) was diluted in assay buffer to a final concentration of 7.5 nM in a total volume of 15 μL. Positive controls were reaction mixtures containing no test compound; negative controls (blanks) were reaction mixtures containing no kinase. After 15 minutes of pre-incubation of the test compounds with the kinase, a mixture of ATP and peptide substrate ([…]) in assay buffer was added to each well for a final concentration of 750 nM ATP and 500 nM peptide, respectively. After 90 minutes of incubation of the kinase reaction at 28° C. temperature, 10 μL of PKLight ATP Detection Reagent (warmed to room temperature previously) was added to each well. The assay plate was incubated at room temperature for additional 15 minutes and then read on an Analyst in luminescence mode. Dose-response experiments for each of the test compounds were conducted in quadruplet. IC50 values of test compounds represent 50% response of the positive control from the dose-response curve.
Target sequence in this assay (O75116 1-543): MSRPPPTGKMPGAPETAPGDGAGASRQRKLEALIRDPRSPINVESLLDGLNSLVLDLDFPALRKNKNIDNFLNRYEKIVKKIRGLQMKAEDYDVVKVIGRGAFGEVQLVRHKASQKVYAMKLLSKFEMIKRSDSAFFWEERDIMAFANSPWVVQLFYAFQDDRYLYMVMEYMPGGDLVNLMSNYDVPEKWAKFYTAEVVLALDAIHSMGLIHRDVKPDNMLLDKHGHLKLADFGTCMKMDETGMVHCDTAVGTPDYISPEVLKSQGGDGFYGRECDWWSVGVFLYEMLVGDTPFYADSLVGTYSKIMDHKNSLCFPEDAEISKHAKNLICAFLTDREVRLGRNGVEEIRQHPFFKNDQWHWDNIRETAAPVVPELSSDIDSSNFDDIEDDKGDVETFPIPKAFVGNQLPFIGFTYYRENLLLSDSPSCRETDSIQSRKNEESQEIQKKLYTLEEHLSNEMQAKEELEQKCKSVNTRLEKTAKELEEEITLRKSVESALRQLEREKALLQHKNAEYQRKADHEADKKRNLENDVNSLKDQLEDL

ROCKII (1-543) [2] = molecular target: T1, ROCKII (1-543); experiment: IMAP Assay (fluorescence polarization, FAM S6 peptide); type: biochemical; settings: 100 μM ATP, 200 nM FAM S6 peptide, 1 nM kinase; read-out: Assay 2 IC50
Experimental: This assay is performed using FAM S6 substrate peptide (Catalogue #R7184) and IMAP FP Screening Express Kit detection reagents from Molecular Devices (Sunnyvale, Calif.) in IMAP kinase reaction buffer (Tris-HCl, pH 7.2, 10 mM MgCl2, 0.05% NaN3, 0.1% phosphate-free BSA) containing 1 mM DTT. Test compounds dissolved in neat DMSO at 0.3 mg/mL are serially diluted 1 to 3 for concentration response in 100% DMSO. The DMSO serial dilutions are further diluted 33.33-fold in kinase reaction buffer, and 10 μL of this buffer dilution is transferred to Corning black 96-well half area NBS plates for a final top concentration of 3 μg/mL in 1% DMSO. 10 μL aliquot of 3 nM ROCKII (1-543) diluted in kinase reaction buffer is added to each assay well for a final concentration of 1 nM kinase. 10 μL of a mixture of 600 nM FAM S6 peptide and 300 μM ATP diluted in kinase reaction buffer is added to each well for a final concentration of 200 nM peptide and 100 μM ATP. The kinase reaction mixture is incubated for 60 minutes at room temperature. Positive controls are reaction mixtures containing no test compound and negative controls (blanks) are reaction mixtures containing no kinase. The kinase reaction is stopped by addition of 60 μL IMAP progressive binding reagent (Catalog #R7284) diluted 400-fold in 1× Binding buffer A. After 30 min of incubation at room temperature, the plates are read for fluorescence polarization on Analyst Plate Reader using Ex 485 nm, Em 530 nm, and FL 505 dichroic mirror. The mP signals are converted to percent of control (POC) values using the formula: POC=100*(Signal−BCTRL)÷(PCTRL−BCTRL)
Where Signal is the test well signal, BCTRL is the average of background (negative control) well signals on the plate and PCTRL is the average of positive control well signals on the plate. For the concentration-responsive compounds, POC as a function of test compound concentration is fitted to a 4-parameter logistic equation of the form: Y=A+(B−A)/[1+(x/C)D] Where A, B, C, and D are fitted parameters (parameter B is fixed at zero POC), and x and y are the independent and dependent variables, respectively. The IC50 is determined as the inflection point parameter, C.
Target sequence in this assay (O75116 1-543, species assumed): as the sequence (O75116 1-543) above

SMILES | pIC50 (ROCKII (1-543) [1]) | pIC50 (ROCKII (1-543) [2])
CN(C)[C@H]1CCc2nc(NC(=O)c3cccc(OCC(=O)Nc4ccc(C#N)cc4)c3)sc2C1 [Compound 9] | 8.77 | 8.66
N#Cc1ccc(NC(=O)COc2cccc(C(=O)Nc3nc4c(s3)C[C@@H](N)CC4)c2)cc1 [Compound 11, N—((S)-6-amino-4,5,6,7-tetrahydro-benzothiazol-2-yl)-3-[(4-cyano-phenylcarbamoyl)-methoxy]-benzamide] | 8.43 | 7.96
N#Cc1ccc(NC(=O)COc2cccc(C(=O)Nc3nc4c(s3)C[C@@H](N3CCOCC3)CC4)c2)cc1 [Compound 13] | 8.47 | 8.07
N#Cc1cccc(NC(=O)N2CCC[C@@H]2c2cccc(C(=O)Nc3ccc(CCN4CCOCC4)cc3)c2)c1 [Compound 16, (R)-2-{3-[4-(2-morpholin-4-yl-ethyl)-phenylcarbamoyl]-phenyl}-pyrrolidine-1-carboxylic acid (3-cyano-phenyl)-amide trifluoro acetic acid] | 8.24 | 7.64
N#Cc1cccc(NC(=O)N2CCC[C@@H]2c2cccc(C(=O)Nc3ccc(CCN4CCCC4)cc3)c2)c1 [Compound 18] | 8.22 | 7.72
N#Cc1cccc(NC(=O)N2CCC[C@@H]2c2cccc(C(=O)Nc3nc4c(s3)C[C@@H](N)CC4)c2)c1 [Compound 20, (R)-2-[3-((S)-6-Amino-4,5,6,7-tetrahydro-benzothiazol-2-ylcarbamoyl)-phenyl]-pyrrolidine-1-carboxylic acid (3-cyano-phenyl)-amide trifluoroacetic acid] | 8.77 | 9.41
N#Cc1cccc(NC(=O)N2CCC[C@@H]2c2cccc(C(=O)Nc3nc4c(s3)C[C@H](N)CC4)c2)c1 [Compound 22] | 8.59 | 9.00
CN1CCc2nc(NC(=O)c3cccc([C@H]4CCCN4C(=O)c4ccc(-c5ccncc5)cc4)c3)sc2C1 [Compound 26] | 8.77 | 8.24
CCCN[C@H]1CCc2nc(NC(=O)c3cccc([C@H]4CCCN4C(=O)Nc4cccc(C#N)c4)c3)sc2C1 [Compound 29, (R)-2-[3-((S)-6-propylamino-4,5,6,7-tetrahydro-benzothiazol-2-ylcarbamoyl)-phenyl]-pyrrolidine-1-carboxylic acid (3-cyano-phenyl)-amide] | 8.80 | 9.10
CCCN[C@H]1CCc2nc(NC(=O)c3cccc([C@@H](C)NC(=O)c4ccc(OC)c(OC)c4)c3)sc2C1 [Compound 31, 3,4-dimethoxy-N-{(R)-1-[3-((S)-6-propylamino-4,5,6,7-tetrahydro-benzothiazol-2-ylcarbamoyl)-phenyl]-ethyl}-benzamide] | 9.00 | 9.52
CCCN[C@H]1CCc2nc(NC(=O)c3cccc([C@@H](C)NC(=O)c4ccc(OC)c(Cl)c4)c3)sc2C1 [Compound 33] | 8.92 | 9.30
CCCN[C@H]1CCc2nc(NC(=O)c3cccc([C@@H](C)NC(=O)c4ccc(OC)c(C)c4)c3)sc2C1 [Compound 35] | 9.05 | 9.40
CN1CCc2nc(NC(=O)c3cccc([C@H]4CCCN4C(=O)N4CCc5c(C#N)cccc54)c3)sc2C1 [Compound 42, 3-[(R)-1-(4-Cyano-2,3-dihydro-indole-1-carbonyl)-pyrrolidin-2-yl]-N-(5-methyl-4,5,6,7-tetrahydro-thiazolo[5,4-c]pyridin-2-yl)-benzamide trifluoroacetic acid] | 8.16 | 7.35
CN1CCc2nc(NC(=O)c3cccc([C@H]4CCCN4C(=O)Nc4ccc(C(N)=O)cc4)c3)sc2C1 [Compound 44] | 8.85 | 9.15
Cc1nc(-c2ccncc2)sc1C(=O)N1CCC[C@@H]1c1cccc(C(=O)Nc2nc3c(s2)C[C@@H](N(C)C)CC3)c1 [Compound 48] | 8.55 | 8.00
CN(C)[C@H]1CCc2nc(NC(=O)c3cccc([C@H]4CCCN4C(=O)c4nnn(-c5nonc5N)c4-c4ccccc4)c3)sc2C1 [Compound 50] | 8.66 | 8.06
CN1CCc2nc(NC(=O)c3cccc([C@H]4CCCN4C(=O)c4cccc(-c5cn[nH]c5)c4)c3)sc2C1 [Compound 78] | 8.72 | 8.68

SMILES | pIC50 (ROCKII (1-543) [1]) | pIC50 (ROCKII (1-543) [2])
COc1ccc(C(=O)N[C@H](C)c2cccc(C(=O)Nc3nc4c(s3)CN(C)CC4)c2)cc1Cl [Compound 89] | 8.41 | 7.89
COc1ccc(C(=O)N[C@H](C)c2cccc(C(=O)Nc3nc4c(s3)CN(C)CC4)c2)cc1C [Compound 93] | 8.05 | 7.54
COc1ccc(C(=O)N[C@H](C)c2cccc(C(=O)Nc3nc4c(s3)CN(C)CC4)c2)cc1OC [Compound 97] | 8.51 | 8.24
CCCC[C@@H](NC(=O)c1ccc(OC)c(OC)c1)c1cccc(C(=O)Nc2nc3c(s2)CN(C)CC3)c1 [Compound 98] | 8.21 | 7.96
CN(C)[C@H]1CCc2nc(NC(=O)c3cccc([C@H]4CCCN4C(=O)c4ccc5cc(O)ccc5c4)c3)sc2C1 [Compound 100] | – | 8.70
CN1CCc2nc(NC(=O)c3cccc([C@H]4CCCN4C(=O)Nc4cccc(C#N)c4)c3)sc2C1 [Compound 101, (R)-2-[3-(5-Methyl-4,5,6,7-tetrahydro-thiazolo[5,4-c]pyridin-2-ylcarbamoyl)-phenyl]-pyrrolidine-1-carboxylic acid (3-cyano-phenyl)-amide trifluoroacetic acid] | 8.51 | 8.17
CN(C)[C@H]1CCc2nc(NC(=O)c3cccc([C@H]4CCCN4C(=O)c4ccc(-n5ccnc5)cc4)c3)sc2C1 [Compound 102] | 8.59 | 8.44
CN(C)[C@H]1CCc2nc(NC(=O)c3cccc([C@H]4CCCN4C(=O)c4cn5cc(C(N)=O)ccc5n4)c3)sc2C1 [Compound 104] | – | 8.77
CN(C)[C@H]1CCc2nc(NC(=O)c3cccc([C@H]4CCCN4C(=O)c4cccc(-c5cn[nH]c5)c4)c3)sc2C1 [Compound 106] | – | 8.72
CN(C)[C@H]1CCc2nc(NC(=O)c3cccc([C@H]4CCCN4C(=O)c4ccc5[nH]c(=O)ccc5c4)c3)sc2C1 [Compound 108] | 8.64 | 8.44
N#Cc1cccc2c1CCN2C(=O)N1CCC[C@@H]1c1cccc(C(=O)Nc2nc3c(s2)C[C@@H](N2CCOCC2)CC3)c1 [Compound 110] | 8.54 | 8.54
COc1ccc(C(=O)N2CCC[C@@H]2c2cccc(C(=O)Nc3nc4c(s3)C[C@@H](N3CCOCC3)CC4)c2)cc1OC [Compound 112] | 8.44 | 8.17
COc1ccc(C(=O)N2CCC[C@@H]2c2cccc(C(=O)Nc3nc4c(s3)C[C@@H](N3CCOCC3)CC4)c2)cc1C [Compound 116] | 8.11 | 8.01
O=C(Nc1nc2c(s1)C[C@@H](N1CCOCC1)CC2)c1cccc([C@H]2CCCN2C(=O)c2ccc(-c3cnco3)cc2)c1 [Compound 118] | 8.60 | 8.16
O=C(Nc1nc2c(s1)C[C@@H](N1CCOCC1)CC2)c1cccc([C@H]2CCCN2C(=O)c2csc(-c3ccncc3)n2)c1 [Compound 120] | 8.49 | 8.10
O=C(Nc1nc2c(s1)C[C@@H](N1CCOCC1)CC2)c1cccc([C@H]2CCCN2C(=O)c2ccc(-n3ccnc3)cc2)c1 [Compound 122] | 8.46 | 8.08
O=C(Nc1nc2c(s1)C[C@@H](N1CCOCC1)CC2)c1cccc([C@H]2CCCN2C(=O)c2cc(-c3ccncc3)[nH]n2)c1 [Compound 138] | – | 8.38
